# Source: patent US8758723B2, “Compositions and methods for cellular imaging and therapy” (The Board of Regents of the University of Texas System, priority 2006, dated 2014)
# Tested on: tumor-bearing animal models
# Assay: Planar images of tumor-bearing animal models
# Type: in vivo
# Conditions: tumor-bearing animal models (FIGS. 5-7, 9, 10)
# Method: Imaging studies were performed 12 to 15 days after inoculation. Tumor sizes of approximately 1-1.5 cm were measured. Scintigraphic images were obtained using an M-camera from Siemens Medical Systems (Hoffman Estates, Ill.). The camera was equipped with a low-energy parallel-hole collimator.
# Planar scintigraphy was obtained at immediate, 0.5-4 hrs after i.v. injection of ^99mTc—N4-DG, or ^99mTc—N4 (0.3 mCi/rat; 0.1 mg mass/rabbit). To compare the radiotracer accumulation, ROIs (region of interest in counts per pixel) were determined. The ROIs count between tumor and muscle was used to calculate tumor-to-nontumor ratios.
structure (smiles),measurement,value
CC(N)(Cc1ccc(OCCCN2CCCNCCNCCCNCC2)cc1)C(=O)O (stereo not shown) [Example N4-AMT],tumor visualization on planar images,visualized clearly
